Experimental data: US6911549B1, “Method of preparing a taxol derivative” (priority 1992, dated 2005)
In brackets after ≈: the same amount, converted by molar mass.

What was measured:
L1210 leukemia = L1210 leukemia cell proliferation inhibition (Table 1, procedure of Li et al.); type: cell-based, mouse; settings: drug concentration required to inhibit cell proliferation to 50% of untreated control cells; for IC50: Mus musculus, L1210, read-out: L1210 (IC50 μg/ml)
Text: The biological activity of the compounds of this invention has been further confirmed using well known procedures against L1210 leukemia and the results set forth in Table I. The results were obtained using standard well known procedure (Li, L. H.; Kuentzel, S. L.; Murch, L. L.; Pschigoga, L. M.; and W. C. Krueger, “Comparative biological and biochemical effects of nogalamycin and its analogs on L1210 leukemia,” Cancer Res. 39:4816-4822 (1979)). The results are expressed as an IC50 which is the drug concentration required to inhibit cell proliferation to 50% of that of untreated control cells. Lower numbers indicated greater activity.

[1] = tested on: A2780 (human ovarian carcinoma) cells; assay: Cytotoxicity in A2780 (human ovarian carcinoma) cells in culture (IC90); type: cell-based
Text: (§1) The biological activity of the 7-deoxy-7-halotaxol compounds (Formula III) of the invention has been confirmed using well known procedures.

[2] = tested on: L1210 mouse leukemia carcinoma cells; assay: Cytotoxicity in L1210 mouse leukemia carcinoma cells in culture (IC90); type: cell-based
Text: (§2) The biological activity of the 7-deoxy-7β,8β-methanotaxol compounds (Formula II) of the invention has been confirmed using well known procedures.

tubulin = assay: In vitro tubulin polymerization assay after Gaskin et al.; type: biochemical; settings: in vitro at 20° C.; for induction of tubulin polymerization in vitro: compared with taxol
Text: as §2, §1

SMILES: CC(=O)O[C@H]1C(=O)[C@@]2(C)[C@H]([C@H](OC(=O)c3ccccc3)[C@]3(O)C[C@H](OC(=O)[C@H](O)[C@@H](NC(=O)c4ccccc4)c4ccccc4)C(C)=C1C3(C)C)[C@]1(OC(C)=O)CO[C@@H]1C[C@@H]2O [Taxol]
- L1210 (IC50 μg/ml) (L1210 leukemia): 0.015 µg/mL
- IC90 (90% growth inhibitory concentration) ([1]; A2780 (human ovarian carcinoma) cells in culture): 0.007 micrograms/ml
- IC90 (90% growth inhibitory concentration) [2]: 0.06 micrograms/ml

SMILES: CC(=O)O[C@H]1C(=O)[C@]23C[C@H]2C[C@H]2OC[C@@]2(OC(C)=O)[C@H]3[C@H](OC(=O)c2ccccc2)[C@]2(O)C[C@H](OC(=O)[C@H](O)[C@@H](NC(=O)OC(C)(C)C)c3ccccc3)C(C)=C1C2(C)C [Compound 23, N-Debenzoyl-N-(t-butyl)oxycarbonyl-7-deoxy-7β,8β-methanotaxol]
- L1210 (IC50 μg/ml) (L1210 leukemia): 0.0046 µg/mL

SMILES: CC(=O)O[C@H]1C(=O)[C@]2(C)C(F)C[C@H]3OC[C@@]3(OC(C)=O)[C@H]2[C@H](OC(=O)c2ccccc2)[C@]2(O)C[C@H](OC(=O)[C@H](OC(=O)OCC(Cl)(Cl)Cl)[C@@H](NC(=O)OC(C)(C)C)c3ccccc3)C(C)=C1C2(C)C (stereo partly shown) [Compound 13DA, N-Debenzoyl-N-(t-butyl)oxycarbonyl-2′-{[(2,2,2-trichloroethyl)oxy]carbonyl}-7-deoxy-7-fluorotaxol]
- L1210 (IC50 μg/ml) (L1210 leukemia): 0.015 µg/mL

SMILES: CC(=O)O[C@H]1C(=O)C23C[C@@H]2CC2OC[C@@]2(OC(C)=O)C3[C@H](OC(=O)c2ccccc2)[C@]2(O)CC(OC(=O)C(OC(=O)OCC(Cl)(Cl)Cl)[C@@H](NC(=O)OC(C)(C)C)c3ccccc3)C(C)=C1C2(C)C (stereo partly drawn) [Compound 14DA, N-Debenzoyl-N-(t-butyl)oxycarbonyl-2′-{[(2,2,2-trichloroethyl)oxy]carbonyl}-7-deoxy-7β,8β-methanotaxol]
- IC50 (L1210 leukemia): 0.012 µg/mL (≈ 0.0119 µM)

SMILES: CC(=O)OC1C(=O)C23CC2CC2OCC2(OC(C)=O)C3C(OC(=O)c2ccccc2)C2(O)CC(OC(=O)C(O)C(NC(=O)c3ccccc3)c3ccccc3)C(C)=C1C2(C)C (stereo not drawn) [Compound IIb, 7-Deoxy-7β,8β-methanotaxol]
- L1210 (IC50 μg/ml) (L1210 leukemia): 0.012 µg/mL
- IC90 (90% growth inhibitory concentration) [2]: 0.025 micrograms/ml
- induction of tubulin polymerization in vitro (tubulin): able to induce tubulin polymerization in vitro at 20 °C in a manner very similar to taxol

SMILES: CC(=O)O[C@H]1C(=O)[C@]2(C)C(F)C[C@H]3OC[C@@]3(OC(C)=O)[C@H]2[C@H](OC(=O)c2ccccc2)[C@]2(O)CC(OC(=O)[C@H](O)[C@@H](NC(=O)c3ccccc3)c3ccccc3)C(C)=C1C2(C)C (stereo partly shown) [Compound IIIb, 7-Deoxy-7-fluorotaxol]
- IC50 (L1210 leukemia): 0.01 µg/mL (≈ 0.0117 µM)
- IC90 ([1]; Homo sapiens, A2780, read-out: IC90 (90% growth inhibitory concentration)): 0.016 µg/mL (≈ 0.0187 µM)
- potency relative to taxol in tubulin polymerization assay (tubulin): approximately half as potent as taxol
- induction of tubulin polymerization in vitro (tubulin): able to induce tubulin polymerization in vitro at 20 °C in a manner very similar to taxol

SMILES: CC(=O)OC1C(=O)C23CC2CC2OCC2(OC(C)=O)C3C(OC(=O)c2ccccc2)C2(O)CC(OC(=O)C(OC(=O)OCC(Cl)(Cl)Cl)C(NC(=O)c3ccccc3)c3ccccc3)C(C)=C1C2(C)C (stereo not drawn) [Compound 14AA, 2′-{[(2,2,2-Trichloroethyl)oxy]carbonyl}-7-deoxy-7β,8β-methanotaxol]
- L1210 (IC50 μg/ml) (L1210 leukemia): >0.1 µg/mL

SMILES: CC(=O)O[C@H]1C(=O)[C@@]2(C)C(F)C[C@H]3OC[C@@]3(OC(C)=O)[C@H]2[C@H](OC(=O)c2ccccc2)[C@]2(O)C[C@H](OC(=O)[C@H](O)[C@@H](NC(=O)NC(C)(C)C)c3ccccc3)C(C)=C1C2(C)C (stereo partly shown) [Compound 28, N-debenzoyl-N-(t-butyl)aminocarbonyl-7-deoxy-7-fluoro-taxol]
- L1210 (IC50 μg/ml) (L1210 leukemia): 0.0055 µg/mL

SMILES: CC(=O)O[C@H]1C(=O)[C@@]23CC2C[C@H]2OC[C@@]2(OC(C)=O)[C@H]3[C@H](OC(=O)c2ccccc2)[C@]2(O)C[C@H](OC(=O)[C@H](O)[C@@H](NC(=O)NC(C)(C)C)c3ccccc3)C(C)=C1C2(C)C (stereo partly drawn) [Compound 29, N-debenzoyl-N-(t-butyl)aminocarbonyl-7-deoxy-7β,8β-methano-taxol]
- L1210 (IC50 μg/ml) (L1210 leukemia): 0.006 µg/mL

SMILES: CC(=O)O[C@@]12CO[C@@H]1C[C@H](O)[C@@]1(C)C(=O)[C@H](O)C3=C(C)[C@@H](OC(=O)[C@H](O)[C@@H](NC(=O)OC(C)(C)C)c4ccccc4)C[C@@](O)([C@@H](OC(=O)c4ccccc4)[C@H]21)C3(C)C [Taxotere, reference compound]
- IC50 (L1210 leukemia): 0.004 µg/mL (≈ 0.00495 µM)

SMILES: CC(=O)OC1C(=O)C2(C)C(F)CC3OCC3(OC(C)=O)C2C(OC(=O)c2ccccc2)C2(O)CC(OC(=O)C(O)C(NC(=O)OC(C)(C)C)c3ccccc3)C(C)=C1C2(C)C (stereo not shown) [Compound 20, N-Debenzoyl-N-(t-butyl)oxycarbonyl-7-deoxy-7-fluorotaxol]
- L1210 (IC50 μg/ml) (L1210 leukemia): 0.0038 µg/mL

SMILES: CC(=O)OC1C(=O)C2(C)C(F)CC3OCC3(OC(C)=O)C2C(OC(=O)c2ccccc2)C2(O)CC(OC(=O)C(OC(=O)OCC(Cl)(Cl)Cl)C(NC(=O)c3ccccc3)c3ccccc3)C(C)=C1C2(C)C (stereo not shown) [Compound 13AA, 2′-{[(2,2,2-Trichloroethyl)-oxy]carbonyl}-7-deoxy-7-fluorotaxol]
- L1210 (IC50 μg/ml) (L1210 leukemia): 0.054 µg/mL
